The nature of this data set: Multiple dose crossover clinical pharmacokinetic study, IR vs CR oxybutynin. Particulars: plasma.

In the case of `CCNCC#CCOC(=O)C(O)(c1ccccc1)C1CCCCC1` (stereo not shown) [DESOXY], the “t1/2 life of DESOXY compared to OXY” value is recorded as “shorter”.
